In general, IC50 refers to the concentration at which inhibition is half-maximal.

The structures appear in SMILES notation.

The target of the first test is T1, human recombinant PDE9 enzyme (Homo sapiens, UniProt O76083).
T1 construct: made in house; host or cells: SF-9 insect cells
T1 sequence (O76083 whole entry): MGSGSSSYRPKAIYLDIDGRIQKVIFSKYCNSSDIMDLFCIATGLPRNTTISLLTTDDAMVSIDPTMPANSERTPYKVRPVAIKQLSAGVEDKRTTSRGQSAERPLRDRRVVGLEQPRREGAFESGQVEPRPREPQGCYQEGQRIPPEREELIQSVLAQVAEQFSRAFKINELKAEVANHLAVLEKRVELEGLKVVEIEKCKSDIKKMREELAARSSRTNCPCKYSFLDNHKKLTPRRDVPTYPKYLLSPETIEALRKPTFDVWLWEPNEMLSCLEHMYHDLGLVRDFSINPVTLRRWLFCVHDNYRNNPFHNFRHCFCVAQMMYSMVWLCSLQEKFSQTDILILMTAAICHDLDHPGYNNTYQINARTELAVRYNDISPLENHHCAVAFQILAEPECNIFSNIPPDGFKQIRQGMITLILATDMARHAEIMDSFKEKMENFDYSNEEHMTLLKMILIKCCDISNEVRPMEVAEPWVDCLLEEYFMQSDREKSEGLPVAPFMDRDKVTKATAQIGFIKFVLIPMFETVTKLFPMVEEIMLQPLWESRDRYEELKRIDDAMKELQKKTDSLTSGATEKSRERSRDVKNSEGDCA
In words: Phosphodiesterase 9 (PDE9) inhibitory activity, Scintillation Proximity (SPA) assay.
Conditions: not given
Type of test: biochemical. The method in brief:
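Scintillation proximity read-out of [3H]cGMP hydrolysis after 30 min at room temperature, with enzyme addition starting the reaction. The enzyme was human recombinant PDE9 expressed in SF-9 cells, titrated to keep substrate turnover at 20% or less. Compound wells held 2% DMSO final, and background was defined with excess PDE inhibitor.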
(In a scintillation proximity assay essentially only radioactivity close to the scintillant gives light.)
As to `C[C@@H]1CN(Cc2ccc(F)cc2)C[C@H]1c1nc2c(cnn2C2CCOCC2)c(=O)[nH]1` [Example 96, 6-[(3S,4S)-1-(4-fluorobenzyl)-4-methylpyrrolidin-3-yl]-1-(tetrahydro-2H-pyran-4-yl)-1,5-dihydro-4H-pyrazolo[3,4-d]pyrimidin-4-one], the IC50 was 0.00713 µM.

Staying with this test, now noted: human recombinant PDE9 from SF-9 cells; 50 nM [3H]cGMP; room temperature, 30 min; Examples 3-114; read-out: G5678A (U): IC50.
Consider `C[C@@H]1CN(Cc2ccc(F)cc2F)C[C@H]1c1nc2c(cnn2C2CCOCC2)c(=O)[nH]1` [Example 100, 6-[(3S,4S)-1-(2,4-difluorobenzyl)-4-methylpyrrolidin-3-yl]-1-(tetrahydro-2H-pyran-4-yl)-1,5-dihydro-4H-pyrazolo[3,4-d]pyrimidin-4-one], for which the IC50 came out at 0.0227 µM.
Consider `Cc1nn(C2CCOCC2)c2nc([C@@H]3CN(Cc4ccccc4)C[C@H]3C)[nH]c(=O)c12` [Example 88, 6-[(3S,4S)-1-benzyl-4-methylpyrrolidin-3-yl]-3-methyl-1-(tetrahydro-2H-pyran-4-yl)-1,5-dihydro-4H-pyrazolo[3,4-d]pyrimidin-4-one], for which the IC50 turned out to be 0.0179 µM.
Same read-out and setting: for `Cc1ncc(CN2C[C@@H](C)[C@H](c3nc4c(c(C)nn4C4CCOCC4)c(=O)[nH]3)C2)cn1` [Example 93, 3-methyl-6-{(3S,4S)-4-methyl-1-[(2-methylpyrimidin-5-yl)methyl]pyrrolidin-3-yl}-1-(tetrahydro-2H-pyran-4-yl)-1,5-dihydro-4H-pyrazolo[3,4-d]pyrimidin-4-one] the value was 0.0243 µM; for `CC[C@@H]1CN(Cc2cnc(C)nc2)C[C@H]1c1nc2c(cnn2C2CCOCC2)c(=O)[nH]1` (racemic) [Example 74], 0.00614 µM.
`O=c1[nH]c([C@@H]2CN(Cc3ccc4nccnc4c3)C[C@H]2C2CC2)nc2c1cnn2C1CCCC1` (racemic) [Example 56, 1-cyclopentyl-6-[(3,4-trans)-4-cyclopropyl-1-(quinoxalin-6-ylmethyl)pyrrolidin-3-yl]-1,5-dihydro-4H-pyrazolo[3,4-d]pyrimidin-4-one]: the IC50 was determined as 0.00481 µM.
For the molecule `C[C@@H]1CN(Cc2ccc(C(F)(F)F)nc2)C[C@H]1c1nc2c(cnn2C2CCOCC2)c(=O)[nH]1` [Example 80, 6-[(3S,4S)-4-methyl-1-{[6-(trifluoromethyl)pyridin-3-yl]methyl}pyrrolidin-3-yl]-1-(tetrahydro-2H-pyran-4-yl)-1,5-dihydro-4H-pyrazolo[3,4-d]pyrimidin-4-one], the IC50 stood at 0.00372 µM.
On to `C[C@@H]1CN(Cc2cccc(C(F)(F)F)c2)C[C@H]1c1nc2c(cnn2C2CCCC2)c(=O)[nH]1` (racemic) [Example 8, 1-cyclopentyl-6-{(3,4-trans)-4-methyl-1-[3-(trifluoromethyl)benzyl]pyrrolidin-3-yl}-1,5-dihydro-4H-pyrazolo[3,4-d]pyrimidin-4-one], for which the IC50 is 0.0112 µM.
For the molecule `C[C@@H]1CN(Cc2cc(F)cc(F)c2)C[C@H]1c1nc2c(cnn2C2CCOCC2)c(=O)[nH]1` [Example 90, 6-[(3S,4S)-1-(3,5-difluorobenzyl)-4-methylpyrrolidin-3-yl]-1-(tetrahydro-2H-pyran-4-yl)-1,5-dihydro-4H-pyrazolo[3,4-d]pyrimidin-4-one], the IC50 was 0.00141 µM.
With `CC[C@@H]1CN(Cc2ccc(OC)nc2)C[C@H]1c1nc2c(cnn2C2CCOCC2)c(=O)[nH]1` [Example 108, 6-{(3S,4S)-4-ethyl-1-[(6-methoxypyridin-3-yl)methyl]pyrrolidin-3-yl}-1-(tetrahydro-2H-pyran-4-yl)-1,5-dihydro-4H-pyrazolo[3,4-d]pyrimidin-4-one], the IC50 turned out to be 0.00311 µM.
In the case of `C[C@@H]1CN(Cc2nc3cnccc3n2C)C[C@H]1c1nc2c(cnn2C2CCOCC2)c(=O)[nH]1` [Example 81, 6-{(3S,4S)-4-methyl-1-[(1-methyl-1H-imidazo[4,5-c]pyridin-2-yl)methyl]pyrrolidin-3-yl}-1-(tetrahydro-2H-pyran-4-yl)-1,5-dihydro-4H-pyrazolo[3,4-d]pyrimidin-4-one], the IC50 stood at 0.00292 µM.
`C[C@@H]1CN(CCc2ccccc2)C[C@H]1c1nc2c(cnn2C2CCCC2)c(=O)[nH]1` (racemic) [Example 24, 1-cyclopentyl-6-[(3,4-trans)-4-methyl-1-(2-phenylethyl)pyrrolidin-3-yl]-1,5-dihydro-4H-pyrazolo[3,4-d]pyrimidin-4-one]: the IC50 was found to be 0.119 µM.
On the same count and under the same terms, for `C[C@@H]1CN(Cc2ccccc2)C[C@H]1c1nc2c(cnn2C2CCCC2)c(=O)[nH]1` [Example 3, 6-[(3S,4S)-1-benzyl-4-methylpyrrolidin-3-yl]-1-cyclopentyl-1,5-dihydro-4H-pyrazolo[3,4-d]pyrimidin-4-one] the value was 0.00946 µM; for `CC[C@@H]1CN(Cc2cnc(C)cn2)C[C@H]1c1nc2c(cnn2C2CCOCC2)c(=O)[nH]1` [Example 107, 6-{(3S,4S)-4-ethyl-1-[(5-methylpyrazin-2-yl)methyl]pyrrolidin-3-yl}-1-(tetrahydro-2H-pyran-4-yl)-1,5-dihydro-4H-pyrazolo[3,4-d]pyrimidin-4-one], 0.00433 µM; for `C[C@@H]1CN(Cc2c(F)cccc2F)C[C@H]1c1nc2c(cnn2C2CCOCC2)c(=O)[nH]1` [Example 106, 6-[(3S,4S)-1-(26-difluorobenzyl)-4-methylpyrrolidin-3-yl]-1-(tetrahydro-2H-pyran-4-yl)-1,5-dihydro-4H-pyrazolo[3,4-d]pyrimidin-4-one], 0.00806 µM.

The same test, now with this note: human recombinant PDE9 from SF-9 cells; 50 nM [3H]cGMP; room temperature, 30 min; additional compounds Ex. 115-228; read-out: G5678A (U):IC50.
Consider `COc1cc(CN2C[C@@H](C)[C@H](c3nc4c(cnn4C4CCCC4)c(=O)[nH]3)C2)ccc1C` (racemic) [Example 141, 1-cyclopentyl-6-[(3,4-trans)-1-(3-methoxy-4-methylbenzyl)-4-methylpyrrolidin-3-yl]-1,5-dihydro-4H-pyrazolo[3,4-d]pyrimidin-4-one], for which the IC50 turned out to be 0.0531 µM.
On the same count and under the same terms, for `Cc1nc(C)c(CN2C[C@@H](C)[C@H](c3nc4c(cnn4C4CCCC4)c(=O)[nH]3)C2)nc1C` (racemic) [Example 212, 1-cyclopentyl-6-{(3,4-trans)-4-methyl-1-[(3,5,6-trimethylpyrazin-2-yl)methyl]pyrrolidin-3-yl}-1,5-dihydro-4H-pyrazolo[3,4-d]pyrimidin-4-one] the value was 0.00998 µM; for `Cc1c(F)cccc1CN1C[C@@H](C)[C@H](c2nc3c(cnn3C3CCCC3)c(=O)[nH]2)C1` (racemic) [Example 166, 1-cyclopentyl-6-[(3,4-trans)-1-(3-fluoro-2-methylbenzyl)-4-methylpyrrolidin-3-yl]-1,5-dihydro-4H-pyrazolo[3,4-d]pyrimidin-4-one], 0.0683 µM; for `C[C@@H]1CN(Cc2c(F)cccc2Cl)C[C@H]1c1nc2c(cnn2C2CCCC2)c(=O)[nH]1` (racemic) [Example 117, 6-[(3,4-trans)-1-(2-chloro-6-fluorobenzyl)-4-methylpyrrolidin-3-yl]-1-cyclopentyl-1,5-dihydro-4H-pyrazolo[3,4-d]pyrimidin-4-one], 0.126 µM.
The same measure, in the same setting: for `Cc1cccc(CN2C[C@@H](C)[C@H](c3nc4c(cnn4C4CCCC4)c(=O)[nH]3)C2)c1` (racemic) [Example 160, 1-cyclopentyl-6-[(3,4-trans)-4-methyl-1-(3-methylbenzyl)pyrrolidin-3-yl]-1,5-dihydro-4H-pyrazolo[3,4-d]pyrimidin-4-one] the value was 0.0434 µM.
On the same count and under the same terms, for `COc1c(C)cnc(CN2C[C@@H](C)[C@H](c3nc4c(cnn4C4CCCC4)c(=O)[nH]3)C2)c1C` (racemic) [Example 196, 1-cyclopentyl-6-{(3,4-trans)-1-[(4-methoxy-3,5-dimethylpyridin-2-yl)methyl]-4-methylpyrrolidin-3-yl}-1,5-dihydro-4H-pyrazolo[3,4-d]pyrimidin-4-one] the value was 0.187 µM.
With `COc1ccc(OC)c(CN2C[C@@H](C)[C@H](c3nc4c(cnn4C4CCCC4)c(=O)[nH]3)C2)c1` (racemic) [Example 144, 1-cyclopentyl-6-[(3,4-trans)-1-(2,5-dimethoxybenzyl)-4-methylpyrrolidin-3-yl]-1,5-dihydro-4H-pyrazolo[3,4-d]pyrimidin-4-one], the IC50 turned out to be 0.0996 µM.
For the molecule `C[C@@H]1CN(Cc2cccc3ccccc23)C[C@H]1c1nc2c(cnn2C2CCCC2)c(=O)[nH]1` (racemic) [Example 142, 1-cyclopentyl-6-[(3,4-trans)-4-methyl-1-(1-naphthylmethyl)pyrrolidin-3-yl]-1,5-dihydro-4H-pyrazolo[3,4-d]pyrimidin-4-one], the IC50 was 0.0475 µM.
Turning to `Cc1ccc(CN2C[C@@H](C)[C@H](c3nc4c(cnn4C4CCCC4)c(=O)[nH]3)C2)cc1` (racemic) [Example 136, 1-cyclopentyl-6-[(3,4-trans)-4-methyl-1-(4-methylbenzyl)pyrrolidin-3-yl]-1,5-dihydro-4H-pyrazolo[3,4-d]pyrimidin-4-one], the IC50 is 0.132 µM.
With `Cc1ccc(C)c(CN2C[C@@H](C)[C@H](c3nc4c(cnn4C4CCCC4)c(=O)[nH]3)C2)c1` (racemic) [Example 162, 1-cyclopentyl-6-[(3,4-trans)-1-(2,5-dimethylbenzyl)-4-methylpyrrolidin-3-yl]-1,5-dihydro-4H-pyrazolo[3,4-d]pyrimidin-4-one], the IC50 stood at 0.0601 µM.
Turning to `C[C@@H]1CN(Cc2ccc3c(c2)CC(C)(C)O3)C[C@H]1c1nc2c(cnn2C2CCCC2)c(=O)[nH]1` (racemic) [Example 175, 1-cyclopentyl-6-{(3,4-trans)-1-[(2,2-dimethyl-2,3-dihydro-1-benzofuran-5-yl)methyl]-4-methylpyrrolidin-3-yl}-1,5-dihydro-4H-pyrazolo[3,4-d]pyrimidin-4-one], the concentration for half-maximal inhibition (IC50) turned out to be 0.0748 µM.
Still for that read-out and setting: for `COc1ccc(CN2C[C@@H](C)[C@H](c3nc4c(cnn4C4CCCC4)c(=O)[nH]3)C2)cc1C` (racemic) [Example 125, 1-cyclopentyl-6-[(3,4-trans)-1-(4-methoxy-3-methylbenzyl)-4-methylpyrrolidin-3-yl]-1,5-dihydro-4H-pyrazolo[3,4-d]pyrimidin-4-one] the value was 0.0552 µM.
